Laboratory results as given in PubChem BioAssay AID330 (DTP/NCI, 2004).
Where “and” joins values, the source holds several entries; their conditions need not be identical. Equal values may be shown once. Toxic doses and inconclusive results are not listed. Peptide text beside a SMILES is read from it. * marks the point of attachment. Cbz = O=C(OCc1ccccc1)*; Bn = c1ccc(C*)cc1

Test system: P388 leukemia ip, CD2F1 mice, survival T/C
Assay: NCI In Vivo Anticancer Drug Screen. Data for tumor model P388 Leukemia (intraperitoneal) in CD2F1 (CDF1) mice
Details: endpoint: median survival time, higher = longer survival
In short: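 Mice carrying the transplanted tumor received test compound or vehicle. Survival was recorded in each group, and the value is the treated-group measurement divided by that of the vehicle-treated control group.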

[1] = dose: 50.0 mg/kg/injection, schedule: Q01DX005 (ip), vehicle: Klucel (hydroxypropylcellulose) (HPC)
[2] = dose: 100.0 mg/kg/injection, schedule: Q01DX005 (ip), vehicle: Klucel (hydroxypropylcellulose) (HPC)
[3] = dose: 200.0 mg/kg/injection, schedule: Q01DX005 (ip), vehicle: Klucel (hydroxypropylcellulose) (HPC)
[4] = dose: 50.0 mg/kg/injection, schedule: Q01DX009 (ip), vehicle: Klucel (hydroxypropylcellulose) (HPC)
[5] = dose: 100.0 mg/kg/injection, schedule: Q01DX009 (ip), vehicle: Klucel (hydroxypropylcellulose) (HPC)
[6] = dose: 200.0 mg/kg/injection, schedule: Q01DX009 (ip), vehicle: Klucel (hydroxypropylcellulose) (HPC)
[7] = dose: 60.0 mg/kg/injection, schedule: Q01DX005 (ip), vehicle: saline with Tween-80
[8] = dose: 240.0 mg/kg/injection, schedule: Q01DX005 (ip), vehicle: saline with Tween-80
[9] = dose: 50.0 mg/kg/injection, schedule: Q01DX005 (ip), vehicle: saline with Tween-80
[10] = dose: 100.0 mg/kg/injection, schedule: Q01DX005 (ip), vehicle: saline with Tween-80
[11] = dose: 200.0 mg/kg/injection, schedule: Q01DX005 (ip), vehicle: saline with Tween-80
[12] = dose: 100.0 mg/kg/injection, schedule: Q04DX003 (ip), vehicle: saline with Tween-80
[13] = dose: 50.0 mg/kg/injection, schedule: Q01DX009 (ip), vehicle: saline with Tween-80
[14] = dose: 100.0 mg/kg/injection, schedule: Q01DX009 (ip), vehicle: saline with Tween-80
[15] = dose: 400.0 mg/kg/injection, schedule: Q01DX009 (ip), vehicle: Klucel (hydroxypropylcellulose) (HPC)
[16] = dose: 15.0 mg/kg/injection, schedule: Q01DX005 (ip), vehicle: saline with Tween-80
[17] = dose: 30.0 mg/kg/injection, schedule: Q01DX005 (ip), vehicle: saline with Tween-80
[18] = dose: 120.0 mg/kg/injection, schedule: Q01DX005 (ip), vehicle: saline with Tween-80
[19] = dose: 200.0 mg/kg/injection, schedule: Q01DX009 (ip), vehicle: saline with Tween-80

COc1cc2c(cc1OC)C1C(C(=O)O)c3ccc(OC)c(OC)c3C(=O)N1CC2 (stereo not drawn)
T/C (dose: 50.0 mg/kg/injection, schedule: Q04DX003 (ip), vehicle: distilled water + Tween-80): 100 % of control | T/C (dose: 100.0 mg/kg/injection, schedule: Q04DX003 (ip), vehicle: distilled water + Tween-80): 101 % of control | T/C (dose: 200.0 mg/kg/injection, schedule: Q04DX003 (ip), vehicle: distilled water + Tween-80): 103 % of control | T/C (dose: 400.0 mg/kg/injection, schedule: Q04DX003 (ip), vehicle: distilled water + Tween-80): 89 % of control

Oc1ccccc1C=Nc1ccccc1N=Cc1ccccc1O.[Cu]
T/C [1]: 99 % of control | T/C [2]: 97 % of control | T/C [3]: 90 % of control

COC(=O)c1[se]c(=[Se])[se]c1C(=O)OC
T/C (dose: 200.0 mg/kg/injection, schedule: Q01DX001 (ip), vehicle: Klucel (hydroxypropylcellulose) (HPC)): 88 % of control

CCCN1C=C(C(=O)OC)C(N)=C(C#N)/C1=C\C=C(/C#N)C(=O)OC
T/C (dose: 50.0 mg/kg/injection, schedule: Q04DX002 (ip), vehicle: Klucel (hydroxypropylcellulose) (HPC)): 93 % of control | T/C (dose: 100.0 mg/kg/injection, schedule: Q04DX002 (ip), vehicle: Klucel (hydroxypropylcellulose) (HPC)): 100 % of control | T/C (dose: 200.0 mg/kg/injection, schedule: Q04DX002 (ip), vehicle: Klucel (hydroxypropylcellulose) (HPC)): 90 % of control

COc1ccc2nc3cc(Cl)ccc3c(NCCCCCCNc3c4ccc(Cl)cc4nc4ccc(OC)nc34)c2n1
T/C [4]: 93 % of control | T/C [5]: 105 % of control

CC12OC1(C)C1C(=O)OCC1C2=O (stereo not drawn)
T/C (dose: 25.0 mg/kg/injection, schedule: Q01DX009 (ip), vehicle: Klucel (hydroxypropylcellulose) (HPC)): 105 % of control | T/C [4]: 96 % of control | T/C [5]: 97 % of control | T/C [6]: 117 % of control

O=C(Cc1nc2ccccc2nc1CC(=O)c1ccncc1)c1ccncc1
T/C (dose: 6.25 mg/kg/injection, schedule: Q01DX005 (ip), vehicle: saline with Tween-80): 102 % of control | T/C (dose: 12.5 mg/kg/injection, schedule: Q01DX005 (ip), vehicle: saline with Tween-80): 90 % of control | T/C [7]: 93 % of control | T/C [8]: 98 % of control

CCOC(=O)c1nn(C)c(=O)[nH]c1=O
T/C [9]: 99 % of control | T/C [10]: 100 % of control | T/C [11]: 100 % of control

COC(=O)C1=C(C(=O)OC)C23C(=O)c4ccc(OC)c(OC)c4C1(OC)N2CCc1cc2c(cc13)OCO2 (stereo not drawn)
T/C (dose: 50.0 mg/kg/injection, schedule: Q04DX002 (ip), vehicle: saline with Tween-80): 96 % of control | T/C (dose: 100.0 mg/kg/injection, schedule: Q04DX002 (ip), vehicle: saline with Tween-80): 96 % of control | T/C (dose: 200.0 mg/kg/injection, schedule: Q04DX002 (ip), vehicle: saline with Tween-80): 100 % of control

CN1C(=O)N(C)C2(C=Cc3ccccc3O2)N(C)C1=O
T/C (dose: 50.0 mg/kg/injection, schedule: Q04DX003 (ip), vehicle: saline with Tween-80): 92 % of control | T/C [12]: 98 % of control | T/C (dose: 200.0 mg/kg/injection, schedule: Q04DX003 (ip), vehicle: saline with Tween-80): 92 % of control

COc1ccc2nc3cc(Cl)ccc3c(NCCOCCO)c2c1
T/C [13]: 101 % of control | T/C [14]: 109 % of control

CC1=CCC(CC2CO2)C1(C)C (stereo not drawn)
T/C (dose: 50.0 mg/kg/injection, schedule: Q01DX009 (ip), vehicle: saline): 101 % of control | T/C (dose: 100.0 mg/kg/injection, schedule: Q01DX009 (ip), vehicle: saline): 108 % of control

O=C(OCOC(=O)c1ccccc1)c1ccccc1
T/C [5]: 117 % of control | T/C [6]: 107 % of control | T/C [15]: 109 % of control

COC1=C(OC)C(=O)C2=C(OCCCCO2)C1=O
T/C [16]: 104 % of control | T/C [17]: 103 % of control | T/C [7]: 101 % of control and 107 % of control | T/C [18]: 100 % of control | T/C [8]: 99 % of control

COC1CC(O)(CC#N)C(OC(=O)c2ccc([N+](=O)[O-])cc2)C(COC(=O)c2ccc([N+](=O)[O-])cc2)O1 (stereo not drawn)
T/C (dose: 100.0 mg/kg/injection, schedule: Q04DX003 (ip), vehicle: Klucel (hydroxypropylcellulose) (HPC)): 94 % of control | T/C (dose: 200.0 mg/kg/injection, schedule: Q04DX003 (ip), vehicle: Klucel (hydroxypropylcellulose) (HPC)): 101 % of control | T/C (dose: 400.0 mg/kg/injection, schedule: Q04DX003 (ip), vehicle: Klucel (hydroxypropylcellulose) (HPC)): 104 % of control

CCCCN(C(C)=O)c1nc2ccccc2n1C
T/C (dose: 100.0 mg/kg/injection, schedule: Q04DX003 (ip), vehicle: saline): 97 % of control | T/C (dose: 200.0 mg/kg/injection, schedule: Q04DX003 (ip), vehicle: saline): 98 % of control | T/C (dose: 400.0 mg/kg/injection, schedule: Q04DX003 (ip), vehicle: saline): 95 % of control

COC(=O)C(CSCc1ccccc1)NC(=O)C(CC(N)=O)NC(=O)OCc1ccccc1 (stereo not drawn) (Cbz-Asn-Cys(Bn)-OMe; configuration not given here)
T/C (dose: 12.5 mg/kg/injection, schedule: Q01DX009 (ip), vehicle: distilled water + Tween-80): 88 % of control | T/C (dose: 25.0 mg/kg/injection, schedule: Q01DX009 (ip), vehicle: distilled water + Tween-80): 88 % of control | T/C (dose: 50.0 mg/kg/injection, schedule: Q01DX009 (ip), vehicle: distilled water + Tween-80): 91 % of control | T/C (dose: 100.0 mg/kg/injection, schedule: Q01DX009 (ip), vehicle: distilled water + Tween-80): 92 % of control | T/C (dose: 200.0 mg/kg/injection, schedule: Q01DX009 (ip), vehicle: distilled water + Tween-80): 103 % of control

O=C1CC2(C(=O)N1CN1CCN(c3ccc(F)cc3)CC1)c1ccccc1-c1ccccc12 (tested in a mixture with another compound)
T/C [12]: 90 % of control

CCCCCCC(=O)/C=C/c1ccc(OC(=O)c2ccc(C#N)cc2)cc1
T/C [13]: 100 % of control | T/C [14]: 101 % of control | T/C [19]: 95 % of control

OCC#C[C@@H]1CC[C@H]1C#CCO
T/C [1]: 100 % of control | T/C [2]: 103 % of control | T/C [3]: 103 % of control

CN1OC(CS(=O)(=O)c2ccccc2)(S(=O)(=O)c2ccccc2)CC1c1ccccc1 (stereo not drawn)
T/C [1]: 103 % of control | T/C [2]: 101 % of control | T/C [3]: 101 % of control

O=C(Nc1ccc2c(c1)oc(=O)c1ccccc12)C(Cl)Cl
T/C [9]: 96 % of control | T/C [10]: 98 % of control | T/C [11]: 89 % of control

CCCCOc1ccc(/C=N/NC(=O)CNC(=O)Nc2cccc([N+](=O)[O-])c2)cc1
T/C [16]: 98 % of control | T/C [17]: 89 % of control | T/C [7]: 86 % of control and 87 % of control | T/C [8]: 91 % of control

O=C1CSC(=S)N1c1cccc(Cl)c1
T/C [4]: 107 % of control and 122 % of control | T/C [5]: 118 % of control and 121 % of control | T/C [6]: 111 % of control | T/C [15]: 100 % of control

Cc1csc2nc(-c3ccccc3)cn12
T/C [9]: 98 % of control | T/C [10]: 96 % of control | T/C [11]: 97 % of control

CC1(C)N=C(N)N=C(N)N1c1ccc(OCCCOc2ccc(S(=O)(=O)F)cc2)c(Cl)c1
T/C (dose: 12.5 mg/kg/injection, schedule: Q04DX003 (ip), vehicle: saline): 120 % of control | T/C (dose: 25.0 mg/kg/injection, schedule: Q04DX003 (ip), vehicle: saline): 115 % of control

OC1(c2ccccc2)CN(Cc2ccccc2)CC(c2ccccc2)O1 (stereo not drawn)
T/C [14]: 98 % of control | T/C [19]: 100 % of control | T/C (dose: 400.0 mg/kg/injection, schedule: Q01DX009 (ip), vehicle: saline with Tween-80): 106 % of control

Cc1ccc(S(=O)(=O)OCCN(CCOS(=O)(=O)c2ccc(C)cc2)c2ccc(F)cc2)cc1
T/C (dose: 0.63 mg/kg/injection, schedule: Q01DX009 (ip), vehicle: other): 104 % of control | T/C (dose: 1.25 mg/kg/injection, schedule: Q01DX009 (ip), vehicle: other): 118 % of control | T/C (dose: 5.0 mg/kg/injection, schedule: Q01DX009 (ip), vehicle: other): 150 % of control

Cc1cc(C)c2c(c1)CC(C)(C)CC2(O)C1CCCCN1 (stereo not drawn)
T/C [1]: 100 % of control | T/C [2]: 108 % of control

COC(=O)C1(CC(=O)c2ccc(Cl)cc2)NC(=S)NC(=O)C1C#N (stereo not drawn)
T/C [7]: 99 % of control | T/C [18]: 98 % of control | T/C [8]: 106 % of control

CN(C)N1C(=O)c2ccccc2NC1c1ccccc1 (stereo not drawn)
T/C [1]: 87 % of control | T/C [2]: 96 % of control | T/C [3]: 94 % of control
